# *1 amine or outer side, *2 acyl side, *3 side chain or, on linkers, in order; H or OH if unused. Bridges are numbered along the chain shown (N, C = ends). Where no end group is shown, it is not given here. mXylylene = c1cc(C[*:1])cc(C[*:2])c1
# Test system: NBFL cells
# Assay: BDNF, NGF and KV4.3 transcript levels in NBFL cells dosed with linear or cyclic RPP
# Format: cell-based
# Conditions: 1 μM
# Description: FIG. 9. Comparison of linear and cyclic RPP. […] Efficacy on was assessed by measuring changes in (A) BDNF, (B) NGF, and (C) KV4.3 transcript levels. N=1
# Plasmids. RPP (SEQ ID NOS: 2 and 4): One segment of this construct containing T7 promoter, CPP, and His tag was synthesized as a gBlock (Table 8) by IDT and amplified with primers described in Table 8. The PCR reaction (20 μL) was initially heated at 95° C. for 2.5 min followed by 30 cycles of denaturation at 94° C. for 15 sec., annealing at 55° C. for 15 sec., and extension at 72° C. for 30 seconds. Following amplification, PCR fragment was gel-purified by the QIAGEN gel-band purification kit according to manufacturer's protocol.
# In vitro Expression. RPP (Table 8) or CP (Table 9) were expressed in vitro using the PURE Express In Vitro Protein Synthesis Kit (New England Biolabs). The RPP (SEQ ID NOS: 2 and 4) or CP sequence was amplified from the RPP (SEQ ID NOS: 2 and 4) or CP expression constructs (Table 8 and 9) with primers listed in Table 8, and gel-purified by the QIAGEN gel-band purification kit. The PCR reaction (20 μL) was initially heated at 95° C. for 2.5 min followed by 30 cycles of denaturation at 94° C. for 15 sec., annealing at 55° C. for 15 sec., and extension at 72° C. for 30 sec. Then, 15 μL of the purified PCR fragment was mixed with 10 μL of Solution A and 7.5 μL of Solution B of the PURE Express In Vitro Protein Synthesis Kit (New England Biolabs) and incubated 2 hours at 37° C. Next, 2 μL of DNAse I was added and incubated for 20 min at 37° C.
# Purification. RPP (SEQ ID NOS: 2 and 4) and CP: The final solution from the in vitro expression step was diluted to 100 μL and filtered through the Amicon Ultracel 0.5 mL-100K columns (Sigma) to remove ribosomes. The flow through was added to 100 μL of washed Ni-NTA Magnetic Agarose Beads (Qiagen) and was washed with wash buffer as described by the manufacturer.
# Cyclization. The RPP (SEQ ID NO: 2) or was cyclized by mixing the beads with 500 μL of the cyclization solution which was made by mixing 2.65 mL of the 1.33×PBS (66.5 mM phosphate buffer, 400 mM NaCl) with 1.32 mL of dibromo-m-xylene solution in acetonitrile (2.5 mg/mL). Following incubation with the cyclization solution beads were washed once with wash buffer I (PBS with 25 mM imidazole, 0.5 μL/mL of mercaptoethanol), once with wash buffer II (PBS with 25 mM imidazole, 0.5 mM TCEP), twice with wash buffer III (PBS with 25 mM imidazole) and eluted with 50 μL of the elution buffer (PBS with 500 mM imidazole). Imidazole was removed using Bio-Rad Micro Bio-Spin Chromatography columns.
# Dosing and Cell Culture. NBFL cells (FIG. 9) grown in 6 well were dosed with 1 μM of linear (SEQ ID NO: 2) or cyclic (SEQ ID NO: 2) RPP (Table 8) or control peptide (Table 9) for 16 or 48 hours.
# After dosing, cells were lysed and assessed for BDNF, NGF, and KV4.3 mRNA levels (FIG. 9). All of the primers used have been described except for NGF: forward: 5′[…]3′ (SEQ ID NO: 338) and reverse 5′[…]3′ (SEQ ID NO: 339).
sequence,measurement,setting,value
"MCTEDLEPPEPPLPKENCGSGSGRKKRRQRRRGGSGSLGHHHHHHGTGY (linker 2-18 via mXylylene (inferred)) [SEQ ID NO: 2, RPP-CPP-His, cyclized with dibromo-m-xylene]","Increase, BDNF mRNA",16 h,5x
same,"Increase, KV4.3 mRNA",16 h,5x
same,"Increase, NGF mRNA",16 h,3.2x
same,"Increase, BDNF mRNA",48 h,2.3x
same,"Increase, KV4.3 mRNA",48 h,5x
same,"Increase, NGF mRNA",48 h,1.7x
same,"Increase, BDNF mRNA","48 h, listed as Cyclic",1.75× x
same,"Increase, KV4.3 mRNA","48 h, listed as Cyclic",25× x
same,"Increase, NGF mRNA","48 h, listed as Cyclic",1.87 x
